Assay results: ChEMBL document CHEMBL5321269, “Discovery, synthesis and biological evaluation of a series of N-(phenylcarbamothioyl)-2-napthamides as inhibitors of Claudin-1” (Bioorg Med Chem, 2023)

Tests used:
SW-620 = assay: Cytotoxicity against human SW620 cells assessed as cell growth inhibition at 25 uM relative to control; format: functional
[1] = Protein binding in human plasma assessed as unbound fraction; format: ADME, cell-free
[2] = Protein binding in mouse plasma assessed as unbound fraction; format: ADME, cell-free
[3] = Tmax in CD1 mouse at 5 mg/kg, ip; format: ADME, organism-based; settings: in vivo
CYP2D6 = CYP2D6 (Homo sapiens, UniProt P10635); assay: Inhibition of CYP2D6 (unknown origin) at 10 uM relative to control; format: ADME
[4] = Half life in CD1 mouse at 5 mg/kg, ip; format: ADME, organism-based; settings: in vivo
[5] = Cmax in CD1 mouse at 5 mg/kg, ip; format: ADME, organism-based; set-up: dose 5 mg/kg, route ip; settings: in vivo
CYP2C19 = CYP2C19 (Homo sapiens, UniProt P33261); assay: Inhibition of CYP2C19 (unknown origin) at 10 uM relative to control; format: ADME
CYP3A4 = CYP3A4 (Homo sapiens, UniProt P08684); assay: Inhibition of CYP3A4 (unknown origin) at 10 uM relative to control; format: ADME
[6] = Mean residence time in CD1 mouse at 5 mg/kg, ip; format: ADME, organism-based; settings: in vivo
[7] = AUCinfinity in CD1 mouse at 5 mg/kg, ip; format: ADME, organism-based; set-up: dose 5 mg/kg, route ip; settings: in vivo

Sequence of CYP3A4 (P08684 whole entry): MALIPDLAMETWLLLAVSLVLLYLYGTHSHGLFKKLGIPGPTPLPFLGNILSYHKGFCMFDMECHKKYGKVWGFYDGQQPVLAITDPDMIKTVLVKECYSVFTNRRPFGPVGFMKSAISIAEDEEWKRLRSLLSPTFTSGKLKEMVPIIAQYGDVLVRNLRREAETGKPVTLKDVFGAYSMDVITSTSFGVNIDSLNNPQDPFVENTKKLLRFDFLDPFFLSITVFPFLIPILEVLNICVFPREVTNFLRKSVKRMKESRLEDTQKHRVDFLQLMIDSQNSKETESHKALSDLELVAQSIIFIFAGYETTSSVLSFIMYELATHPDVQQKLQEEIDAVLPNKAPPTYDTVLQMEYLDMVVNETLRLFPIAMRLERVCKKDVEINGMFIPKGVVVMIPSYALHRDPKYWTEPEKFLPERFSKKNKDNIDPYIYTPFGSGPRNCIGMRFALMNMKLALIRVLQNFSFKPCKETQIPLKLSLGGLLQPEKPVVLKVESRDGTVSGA
Sequence of CYP2C19 (P33261 whole entry): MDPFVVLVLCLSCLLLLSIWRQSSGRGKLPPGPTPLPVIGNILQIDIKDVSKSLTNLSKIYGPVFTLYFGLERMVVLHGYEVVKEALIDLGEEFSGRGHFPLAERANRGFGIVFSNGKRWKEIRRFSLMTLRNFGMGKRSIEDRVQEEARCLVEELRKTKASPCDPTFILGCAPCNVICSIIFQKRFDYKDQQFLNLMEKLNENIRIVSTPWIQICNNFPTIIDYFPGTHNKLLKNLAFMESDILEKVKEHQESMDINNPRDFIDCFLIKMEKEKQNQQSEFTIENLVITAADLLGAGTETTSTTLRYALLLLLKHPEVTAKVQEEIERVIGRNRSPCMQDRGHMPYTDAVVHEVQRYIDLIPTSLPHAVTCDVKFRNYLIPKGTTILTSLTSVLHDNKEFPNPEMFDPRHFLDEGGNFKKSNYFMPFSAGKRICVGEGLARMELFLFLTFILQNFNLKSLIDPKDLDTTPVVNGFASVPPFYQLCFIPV
Sequence of CYP2D6 (P10635 whole entry): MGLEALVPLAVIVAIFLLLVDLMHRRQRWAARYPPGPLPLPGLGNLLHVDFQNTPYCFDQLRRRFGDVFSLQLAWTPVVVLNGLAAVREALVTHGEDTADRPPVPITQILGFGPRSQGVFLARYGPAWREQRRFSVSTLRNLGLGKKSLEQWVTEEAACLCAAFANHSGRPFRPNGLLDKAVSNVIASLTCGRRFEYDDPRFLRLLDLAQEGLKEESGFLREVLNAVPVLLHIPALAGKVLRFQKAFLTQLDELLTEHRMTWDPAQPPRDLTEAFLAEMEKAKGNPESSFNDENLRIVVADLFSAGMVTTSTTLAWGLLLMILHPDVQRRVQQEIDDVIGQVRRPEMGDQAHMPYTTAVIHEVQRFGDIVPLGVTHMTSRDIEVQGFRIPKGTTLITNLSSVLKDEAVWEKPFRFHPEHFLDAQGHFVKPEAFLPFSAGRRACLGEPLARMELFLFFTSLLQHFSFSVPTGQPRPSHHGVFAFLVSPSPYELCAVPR

O=C(NC(=S)Nc1ccc(-c2nc3ccccc3o2)cc1)c1ccc2cccnc2c1
inhibition at 25 µM (SW-620): 0%

CC(C)Oc1cc2ccccc2cc1C(=O)NC(=S)Nc1ccc(-c2nc3ccccc3o2)cc1
inhibition at 25 µM (SW-620): 17.2%

COc1cc2ccccc2cc1C(=O)NC(=S)Nc1ccc(-c2nc3ccccc3s2)cn1
inhibition at 25 µM (SW-620): 71.9%

COc1cc2ccccc2cc1C(=O)Nc1ncc(C(F)(F)F)s1
inhibition at 25 µM (SW-620): 17.6%

COc1cc2ccccc2cc1C(=O)NC(=O)Nc1ccc(-c2nc3ccccc3s2)cc1
inhibition at 25 µM (SW-620): 0%

CCOc1cc2ccccc2cc1C(=O)NC(=S)Nc1ccc(-c2nc3ccccc3o2)cc1
inhibition at 25 µM (SW-620): 0%

COc1ccccc1NC(=S)Nc1ccc(-c2nc3ccccc3o2)cc1
inhibition at 25 µM (SW-620): 29.2%

COc1cc2ccccc2cc1C(=O)NC(=S)Nc1ccc(-c2nc3ccccc3o2)cn1
inhibition at 25 µM (SW-620): 0%

COc1cc2ccccc2cc1C(=O)NC(=S)Nc1ccc(-c2nc3ccccc3[nH]2)cc1
inhibition at 25 µM (SW-620): 68.4% | Fu [1]: < 0.03% | Fu [2]: < 0.01%

O=C(NC(=S)Nc1ccc(-c2ncco2)cc1)c1ccc2cccnc2c1
inhibition at 25 µM (SW-620): 1.4%

COc1cc2ccccc2cc1C(=O)NC(=S)Nc1ccc(-c2ncon2)cc1
inhibition at 25 µM (SW-620): 18.4% | Fu [2]: < 0.03%

COc1ccccc1C(=O)NC(=S)Nc1ccc(-c2nc3ccccc3[nH]2)cc1
inhibition at 25 µM (SW-620): 16.9%

O=C(Nc1ccc(N2CCN(C(=O)c3ccccn3)CC2)cc1)c1cc2ccccc2o1
inhibition at 25 µM (SW-620): 44.8%

O=C(NC(=S)Nc1ccc(-c2nc3ccccc3[nH]2)cc1)c1ccc2cccnc2c1
inhibition at 25 µM (SW-620): 0%

COc1cc2ccccc2cc1C(=O)NC(=O)Nc1ccc(-c2nc3ccccc3[nH]2)cc1
inhibition at 25 µM (SW-620): 90.8% | Fu [1]: < 0.3% | Fu [2]: < 0.3%

CCOc1cc2ccccc2cc1C(=O)NC(=S)Nc1ccc(-c2nc3ccccc3s2)cc1
inhibition at 25 µM (SW-620): 13%

COc1ccccc1NC(=S)Nc1ccc(-c2nc3ccccc3[nH]2)cc1
inhibition at 25 µM (SW-620): 13.2%

COc1cc2ccccc2cc1C(=O)Nc1ccc(-c2nc3ccccc3s2)cc1
inhibition at 25 µM (SW-620): 42.3%

COc1ccccc1NC(=O)Nc1ccc(-c2nc3ccccc3[nH]2)cc1
inhibition at 25 µM (SW-620): 23.8%

COc1cc2ccccc2cc1C(=O)NC(=S)Nc1ccc(-c2ncco2)cc1
inhibition at 25 µM (SW-620): 33.1%

CCOc1cc2ccccc2cc1C(=O)NC(=S)Nc1ccc(-c2nnco2)cc1
inhibition at 25 µM (SW-620): 0%

O=C1c2ccccc2CCN1C(=S)Nc1ccc(-c2nc3ccccc3o2)cc1
inhibition at 25 µM (SW-620): 0% | Fu [1]: < 0.03%

O=C1c2ccccc2CCN1C(=S)Nc1ccc(-c2ncco2)cc1
inhibition at 25 µM (SW-620): 0.9%

COc1cc2ccccc2cc1C(=O)NC(=O)Nc1ccc(-c2nc3ccccc3o2)cc1
inhibition at 25 µM (SW-620): 0%

COc1cc2ccccc2cc1C(=O)NC(=S)Nc1ccc(-c2cscn2)cc1
inhibition at 25 µM (SW-620): 29%

COc1cc2ccccc2cc1C(=O)NC(=S)Nc1ccc(-c2ncc[nH]2)cc1
Tmax [3]: 1 h | inhibition at 10 µM (CYP2D6): 36% | half-life [4]: 2.49 h | Cmax [5]: 5060 ng/mL | inhibition at 10 µM (CYP2C19): 43% | inhibition at 25 µM (SW-620): 89.9% | inhibition at 10 µM (CYP3A4): 28% | MRT [6]: 2.7 h | AUC(0-inf) [7]: 15900 ng·h/mL

O=C(NC(=O)c1ccc2ccccc2c1)Nc1ccc(-c2nc3ccccc3[nH]2)cc1
inhibition at 25 µM (SW-620): 12.7%

COc1ccccc1NC(=O)Nc1ccc(-c2nc3ccccc3o2)cc1
inhibition at 25 µM (SW-620): 19.9%

COc1cc2ccccc2cc1C(=O)NC(=O)Nc1ccc(-c2cscn2)cc1
inhibition at 25 µM (SW-620): 42.6% | Fu [1]: < 0.3% | Fu [2]: < 0.3%

O=C(Nc1ccc(N2CCN(C(=O)c3ccc4ccccc4c3)CC2)cc1)c1cc2ccccc2o1
inhibition at 25 µM (SW-620): 27.8%

COc1cc2ccccc2cc1C(=O)NC(=S)Nc1ccc(-c2nc3ccccc3s2)cc1
inhibition at 25 µM (SW-620): 7.1%

O=C(NC(=S)Nc1ccc(-c2nc3ccccc3o2)cc1)c1ccc2ccccc2c1
inhibition at 25 µM (SW-620): 76.4% | Fu [1]: < 0.04% | Fu [2]: < 0.03%

COc1cc2ccccc2cc1C(=O)NC(=S)Nc1ccc(-c2nnco2)cc1
Tmax [3]: 2.33 h | inhibition at 10 µM (CYP2D6): 19% | half-life [4]: 3.51 h | Cmax [5]: 5100 ng/mL | inhibition at 10 µM (CYP2C19): 37% | inhibition at 25 µM (SW-620): 86.5% | inhibition at 10 µM (CYP3A4): 16% | MRT [6]: 5.3 h | AUC(0-inf) [7]: 34100 ng·h/mL

COc1ccccc1C(=O)NC(=S)Nc1ccc(-c2nc3ccccc3o2)cc1
inhibition at 25 µM (SW-620): 17.2%

COc1cc2ccccc2cc1C(=O)NC(=S)Nc1ccc(-c2nccs2)cc1
inhibition at 25 µM (SW-620): 34.8% | Fu [2]: 2.2%

COc1cc2c(OC)cccc2cc1C(=O)NC(=S)Nc1ccc(-c2nc3ccccc3s2)cc1
inhibition at 25 µM (SW-620): 15.8%

COc1cc2ccccc2cc1C(=O)NC(=S)Nc1ccc(-c2nc3ccccc3o2)cc1
inhibition at 25 µM (SW-620): 57.6% | Fu [2]: < 0.03%

COc1cc2c(OC)cccc2cc1C(=O)NC(=S)Nc1ccc(-c2nc3ccccc3[nH]2)cc1
inhibition at 25 µM (SW-620): 37.6%
